From patent US20260226493A1, “HERBICIDE RESISTANT PLANTS” (SYNGENTA CROP PROTECTION AG, priority 2023, published 2026)

System: D4539 (Escherichia coli MTP BioA) containing tobacco plants
Experiment: Visual herbicide damage score on transgenic tobacco D4539 (pBin TMV MTP EcBioA)
Format: in vivo
Conditions: 600 gai/ha
Description: In order to determine if the overexpressed gene detailed in Example 3 confers resistance to BIO3-BIO1 inhibiting compounds when expressed in plants, GM tobacco lines were produced and tested with BIO3-BIO1 inhibiting compounds. Transgenic tobacco plants expressing the Escherichia coli BioA gene with (SEQ ID NO:203) and without a mitochondrial signal peptide (SEQ ID NO: 202).
Populations of transgenic tobacco comprising 20-30 transgenic events per plant transformation constructs were generated as described in Example 1. These lines were clonally propagated and 1 clone per event was sprayed with 600 g ai/ha compound L or A+0.2% Genapol X080 with a spray volume of 200 L/Ha (“g ai/ha” refers to grams of active compound per hectare).
[…] A score of 0 indicates no visible damage or stunting whereas a score of 100 indicates a complete death of the plant. 20 transgenic events (i.e. individual transgenic plants) from each GM tobacco line were transplanted to soil 1 week prior to spraying with BIO3-BIO1 inhibiting compounds. WT tobacco was included as a control.

## CCOC(=O)c1nn(-c2ccc3c(c2)OC(F)(F)C(F)(F)O3)c2cccc(C(C)=O)c2c1=O [Compound A, ethyl 5-acetyl-4-oxo-1-(2,2,3,3-tetrafluoro-1,4-benzodioxin-6-yl)cinnoline-3-carboxylate]
D4539 event 8385, 7 DAT
  percentage of damage (herbicide damage score): 5%
D4539 event 8385, 14 DAT
  percentage of damage (herbicide damage score): 0%
D4539 event 8385, 21 DAT
  percentage of damage (herbicide damage score): 0%
D4539 event 8386, 7 DAT
  percentage of damage (herbicide damage score): 3%
D4539 event 8386, 14 DAT
  percentage of damage (herbicide damage score): 0%
D4539 event 8386, 21 DAT
  percentage of damage (herbicide damage score): 0%
D4539 event 8399, 7 DAT
  percentage of damage (herbicide damage score): 2%
D4539 event 8399, 14 DAT
  percentage of damage (herbicide damage score): 0%
D4539 event 8399, 21 DAT
  percentage of damage (herbicide damage score): 0%
D4539 event 8402, 7 DAT
  percentage of damage (herbicide damage score): 2%
D4539 event 8402, 14 DAT
  percentage of damage (herbicide damage score): 0%
D4539 event 8402, 21 DAT
  percentage of damage (herbicide damage score): 0%
D4539 event 8414, 7 DAT
  percentage of damage (herbicide damage score): 7%
D4539 event 8414, 14 DAT
  percentage of damage (herbicide damage score): 30%
D4539 event 8414, 21 DAT
  percentage of damage (herbicide damage score): 35%
D4539 event 8415, 7 DAT
  percentage of damage (herbicide damage score): 7%
D4539 event 8415, 14 DAT
  percentage of damage (herbicide damage score): 0%
D4539 event 8415, 21 DAT
  percentage of damage (herbicide damage score): 0%
D4539 event 8417, 7 DAT
  percentage of damage (herbicide damage score): 2%
D4539 event 8417, 14 DAT
  percentage of damage (herbicide damage score): 5%
D4539 event 8417, 21 DAT
  percentage of damage (herbicide damage score): 10%
D4539 event 8418, 7 DAT
  percentage of damage (herbicide damage score): 4%
D4539 event 8418, 14 DAT
  percentage of damage (herbicide damage score): 10%
D4539 event 8418, 21 DAT
  percentage of damage (herbicide damage score): 20%
D4539 event 8423, 7 DAT
  percentage of damage (herbicide damage score): 2%
D4539 event 8423, 14 DAT
  percentage of damage (herbicide damage score): 20%
D4539 event 8423, 21 DAT
  percentage of damage (herbicide damage score): 30%
D4539 event 8424, 7 DAT
  percentage of damage (herbicide damage score): 55%
D4539 event 8424, 14 DAT
  percentage of damage (herbicide damage score): 80%
D4539 event 8424, 21 DAT
  percentage of damage (herbicide damage score): 85%
D4539 event 8426, 7 DAT
  percentage of damage (herbicide damage score): 2%
D4539 event 8426, 14 DAT
  percentage of damage (herbicide damage score): 0%
D4539 event 8426, 21 DAT
  percentage of damage (herbicide damage score): 0%
D4539 event 8433, 7 DAT
  percentage of damage (herbicide damage score): 4%
D4539 event 8433, 14 DAT
  percentage of damage (herbicide damage score): 0%
D4539 event 8433, 21 DAT
  percentage of damage (herbicide damage score): 0%
D4539 event 8434, 7 DAT
  percentage of damage (herbicide damage score): 4%
D4539 event 8434, 14 DAT
  percentage of damage (herbicide damage score): 5%
D4539 event 8434, 21 DAT
  percentage of damage (herbicide damage score): 15%
D4539 event 8438, 7 DAT
  percentage of damage (herbicide damage score): 10%
D4539 event 8438, 14 DAT
  percentage of damage (herbicide damage score): 75%
D4539 event 8438, 21 DAT
  percentage of damage (herbicide damage score): 65%
D4539 event 8439, 7 DAT
  percentage of damage (herbicide damage score): 2%
D4539 event 8439, 14 DAT
  percentage of damage (herbicide damage score): 10%
D4539 event 8439, 21 DAT
  percentage of damage (herbicide damage score): 0%
D4539 event 8447, 7 DAT
  percentage of damage (herbicide damage score): 2%
D4539 event 8447, 14 DAT
  percentage of damage (herbicide damage score): 0%
D4539 event 8447, 21 DAT
  percentage of damage (herbicide damage score): 0%
D4539 event 8448, 7 DAT
  percentage of damage (herbicide damage score): 2%
D4539 event 8448, 14 DAT
  percentage of damage (herbicide damage score): 0%
D4539 event 8448, 21 DAT
  percentage of damage (herbicide damage score): 0%
D4539 event 8460, 7 DAT
  percentage of damage (herbicide damage score): 3%
D4539 event 8460, 14 DAT
  percentage of damage (herbicide damage score): 0%
D4539 event 8460, 21 DAT
  percentage of damage (herbicide damage score): 0%
D4539 event 8461, 7 DAT
  percentage of damage (herbicide damage score): 15%
D4539 event 8461, 14 DAT
  percentage of damage (herbicide damage score): 80%
D4539 event 8461, 21 DAT
  percentage of damage (herbicide damage score): 85%
D4539 event 8462, 7 DAT
  percentage of damage (herbicide damage score): 2%
D4539 event 8462, 14 DAT
  percentage of damage (herbicide damage score): 0%
D4539 event 8462, 21 DAT
  percentage of damage (herbicide damage score): 0%
